This is an account of results in patent US4076814A, “Preventive and curative compositions against mycoplasmosis” (Sankyo Company Limited, priority 1975, dated 1978).

The subject of assay [1] is MRL-4 strain of mycoplasma pulmonis. Put plainly: Curative effect in mice infected with MRL-4 strain of mycoplasma pulmonis by oral administration in feed. Type of assay: in vivo. To be noted: 10 days, after one month. The protocol:
Each of the dithiocarbamic acid derivatives as indicated below with Compound No. was added to a feed and administered orally to mice infected artificially with MRL-4 strain of mycoplasma pulmonis. The effectiveness of the treatment was evaluated. Six groups, each group consisting of ten female mice which were negative in the test for mycoplasmosis, were used. After MRL-4 strain of mycoplasma pulmonis was cultured in PPLO agar medium, the colonies of the surface of the medium were diluted with a phosphate buffer solution to prepare a solution containing about 10^9 /ml of mycoplasma. 0.1 ml of the microbe-containing solution was injected intravenously to the tail of each mouse. For consecutive 10 days from the next day of the injection, the mice were fed with a powdery feed containing the active compound at respective concentrations of 0.04, 0.02, 0.01 and 0.005%, respectively. During the experiment period, all the procedures were conducted in a vinyl isolater.
After one month from the starting of the experiment, the presence of arthritis was visually investigated and at the same time the presence of pneumonia was also investigated after dissection. Recovery tests of mycoplasma and general bacteria were conducted using the joints and lungs of host subjects as the testing materials.

The test system of a further assay is Mycoplasma gallisepticum. Put plainly: Antimicrobial test, conventional agar plate dilution method, Mycoplasma gallisepticum. The assay is classed as cell-based. The settings on record: Mycoplasmoides gallisepticum, read-out: Minimum Inhibitory Concentration, Mycoplasma gallisepticum. From the text:
(§1) ANTIMICROBIAL TEST AGAINST THREE STRAINS OF MYCOPLASMA
(§2) The test was effected by a conventional agar plate dilution method using the indicated strains of mycoplasma. The dithiocarbamic acid derivatives as shown below with Compound Nos. were employed in the test.

The subject of the next assay is Mycoplasma pulmonis. Put plainly: Antimicrobial test, conventional agar plate dilution method, Mycoplasma pulmonis. Type of assay: cell-based. The settings on record: Mycoplasma, read-out: Minimum Inhibitory Concentration, Mycoplasma pulmonis.
From the text: as §1, §2

The subject of a further assay is Mycoplasma hyorhinis. Put plainly: Antimicrobial test, conventional agar plate dilution method, Mycoplasma hyorhinis. The assay is classed as cell-based. The settings on record: Mycoplasma, read-out: Minimum Inhibitory Concentration, Mycoplasma hyorhinis.
From the text: as §1, §2

Values after ≈ are worked out from the molar mass of the structure shown.

In the case of `O=C1CCCCC1CSC(=S)N1CCOCC1` (stereo not shown) [Compound No. 12, 2-Oxocyclohexylmethyl 4-morpholinecarbodithioate], the Attack rate arthritis in assay [1] (0.005% in feed) was 6/10; in assay [1] (0.01% in feed) it was 4/10; in assay [1] (0.02% in feed) it was 1/10; in assay [1] (0.04% in feed), 0/10. Besides, the Attack rate pneumonia in assay [1] (0.005% in feed), in assay [1] (0.01% in feed), in assay [1] (0.02% in feed) and in assay [1] (0.04% in feed) was 0/10 each time. In addition, the “Recovery of mycoplasma joint” value was 6/10 in assay [1] (0.005% in feed), 4/10 in assay [1] (0.01% in feed), 1/10 in assay [1] (0.02% in feed) and 0/10 in assay [1] (0.04% in feed). Further, the “Recovery of mycoplasma lung” value in assay [1] (0.005% in feed), in assay [1] (0.01% in feed), in assay [1] (0.02% in feed) and in assay [1] (0.04% in feed) was 0/10 in each case. The MIC amounted to 0.05 µg/mL (≈ 0.183 µM) in the assay on Mycoplasma gallisepticum, 0.2 µg/mL (≈ 0.731 µM) in the assay on Mycoplasma pulmonis and 0.39 µg/mL (≈ 1.43 µM) with Mycoplasma hyorhinis.

Regarding `CCN(CC)C(=S)SCCC(=O)c1ccccc1` [compound 24, 2-Benzoylethyl diethyldithiocarbamate], the Attack rate arthritis was 4/10 in assay [1] (0.005% in feed), 3/10 in assay [1] (0.01% in feed), 2/10 in assay [1] (0.02% in feed) and 0/10 in assay [1] (0.04% in feed). For the same compound, the Attack rate pneumonia in assay [1] (0.005% in feed), in assay [1] (0.01% in feed), in assay [1] (0.02% in feed) and in assay [1] (0.04% in feed) was 0/10 each time. Further, the “Recovery of mycoplasma joint” value in assay [1] (0.005% in feed) is reported as 4/10; in assay [1] (0.01% in feed), 3/10; in assay [1] (0.02% in feed), 2/10; in assay [1] (0.04% in feed) it was 0/10. Moreover, the “Recovery of mycoplasma lung” value in assay [1] (0.005% in feed), in assay [1] (0.01% in feed), in assay [1] (0.02% in feed) and in assay [1] (0.04% in feed) was 0/10 throughout. In addition, the MIC amounted to 0.05 µg/mL (≈ 0.178 µM) in the assay with Mycoplasma gallisepticum, 0.2 µg/mL (≈ 0.711 µM) in the assay on Mycoplasma pulmonis and 0.39 µg/mL (≈ 1.39 µM) in the assay with Mycoplasma hyorhinis.

Consider `CCN(CC)C(=S)SCCC(C)=O` [compound 79, 2-Acetylethyl diethyldithiocarbamate], for which the Attack rate arthritis in assay [1] (0.005% in feed) is given as 2/10; in assay [1] (0.01% in feed) it was 0/10; in assay [1] (0.02% in feed), 0/10; in assay [1] (0.04% in feed) it was 0/10. Also, the Attack rate pneumonia in assay [1] (0.005% in feed), in assay [1] (0.01% in feed), in assay [1] (0.02% in feed) and in assay [1] (0.04% in feed) was 0/10 in each case. In addition, the “Recovery of mycoplasma joint” value is given as 2/10 in assay [1] (0.005% in feed), 0/10 in assay [1] (0.01% in feed), 0/10 in assay [1] (0.02% in feed) and 0/10 in assay [1] (0.04% in feed). In addition, the “Recovery of mycoplasma lung” value in assay [1] (0.005% in feed), in assay [1] (0.01% in feed), in assay [1] (0.02% in feed) and in assay [1] (0.04% in feed) was 0/10 in each case. Besides, the MIC with Mycoplasma gallisepticum, in the assay on Mycoplasma pulmonis and in the assay with Mycoplasma hyorhinis was 0.012 µg/mL (≈ 0.0547 µM) throughout.

Turning to `CC(=O)CCSC(=S)N1CCCCC1` [compound 88, 2-Acetylethyl 1-piperidinecarbodithioate], the Attack rate arthritis in assay [1] (0.005% in feed) is listed as 3/10; in assay [1] (0.01% in feed), 1/10; in assay [1] (0.02% in feed), 0/10; in assay [1] (0.04% in feed) it was 0/10. Also, the Attack rate pneumonia in assay [1] (0.005% in feed), in assay [1] (0.01% in feed), in assay [1] (0.02% in feed) and in assay [1] (0.04% in feed) was 0/10 throughout. Further, the “Recovery of mycoplasma joint” value is 3/10 in assay [1] (0.005% in feed), 1/10 in assay [1] (0.01% in feed), 0/10 in assay [1] (0.02% in feed) and 0/10 in assay [1] (0.04% in feed). For the same compound, the “Recovery of mycoplasma lung” value in assay [1] (0.005% in feed), in assay [1] (0.01% in feed), in assay [1] (0.02% in feed) and in assay [1] (0.04% in feed) was 0/10 each time. Besides, the figures for the MIC with Mycoplasma gallisepticum, in the assay on Mycoplasma pulmonis and with Mycoplasma hyorhinis were 0.05 µg/mL (≈ 0.216 µM), 0.05 µg/mL (≈ 0.216 µM) and 0.025 µg/mL (≈ 0.108 µM), respectively.
